Conditions: for mass density: 101.33 kPa, Liquid, Buoyancy - hydrostatic balance with magnetic suspension - one sinker

CCCC[n+]1cccc(C)c1.F[P-](F)(F)(F)(F)F [1-butyl-3-methylpyridinium hexafluorophosphate]
Wilhelmy plate
Conditions | surface tension liquid-gas [mN/m]
323.02 K | 43.24
327.6 K | 42.96
333.18 K | 42.58
338.24 K | 42.24
343.75 K | 41.89
348.09 K | 41.63
353.61 K | 41.3
358.09 K | 40.94
364.84 K | 40.51

CCCCn1cc[n+](C)c1C.F[P-](F)(F)(F)(F)F [1-butyl-2,3-dimethylimidazolium hexafluorophosphate]
Wilhelmy plate
Conditions | surface tension liquid-gas [mN/m]
298.17 K | 44.42
313.07 K | 43.73
323.27 K | 43.16
333.13 K | 42.6
338.38 K | 42.38
343.51 K | 42.13
348.43 K | 41.89
353.08 K | 41.68
358.76 K | 41.41
364.84 K | 41.11

CCCCCn1cc[n+](C)c1.F[P-](F)(F)(F)(F)F [1-methyl-3-pentylimidazolium hexafluorophosphate]
surface tension liquid-gas [mN/m]
Conditions | Ring tensiometer | Wilhelmy plate
262.89 K | 43.04 | –
268.06 K | 42.78 | –
273.2 K | – | 42.46
277.73 K | – | 42.19
277.78 K | 42.23 | –
283.1 K | 41.97 | –
283.17 K | – | 41.95
288.28 K | – | 41.53
288.29 K | 41.76 | –
292.81 K | 41.54 | 41.49
298.19 K | – | 41.24
298.2 K | 41.35 | –
303.11 K | 40.96 | –
303.12 K | – | 40.94
308.14 K | – | 40.68
308.16 K | 40.75 | –
313.06 K | 40.41 | 40.4
317.95 K | – | 40.17
317.98 K | 40.23 | –
323.19 K | 40.04 | –
323.2 K | – | 39.86
328.3 K | – | 39.63
328.37 K | 39.69 | –
333.51 K | 39.41 | –
333.52 K | – | 39.36
338.58 K | 39.09 | –
338.6 K | – | 39.1
342.99 K | 38.8 | –
343 K | – | 38.86
348.07 K | 38.64 | –
348.11 K | – | 38.64
353.27 K | 38.38 | –
353.3 K | – | 38.4
357.97 K | – | 38.11
358.34 K | 38.1 | –
362.98 K | – | 37.85

Conditions | mass density [kg/m3]
267.86 K | 1351.91
273.05 K | 1348.4
283.12 K | 1339.58
288.38 K | 1335.51
292.83 K | 1332.19
298.17 K | 1328.15
303.2 K | 1324.24
308.22 K | 1318.91
313.1 K | 1315.32
317.98 K | 1311.51
323.18 K | 1307.37
328.4 K | 1303.77
333.5 K | 1299.9
338.86 K | 1295.93
342.93 K | 1292.1
348 K | 1288.64
353.25 K | 1284.49
358.27 K | 1281.15
362.73 K | 1277.18

CCCCCCCCCn1cc[n+](C)c1.F[P-](F)(F)(F)(F)F [1-nonyl-3-methylimidazolium hexafluorophosphate]
surface tension liquid-gas [mN/m]
Conditions | Ring tensiometer | Wilhelmy plate
288.14 K | – | 33.2
288.18 K | 33.64 | –
293.07 K | 33.26 | 32.96
298.13 K | 32.86 | –
298.16 K | – | 32.7
303.11 K | – | 32.48
303.12 K | 32.8 | –
308.11 K | – | 32.27
308.13 K | 32.71 | –
313.16 K | – | 31.99
313.19 K | 32.4 | –
318.03 K | – | 31.76
318.06 K | 32.17 | –
323.07 K | – | 31.51
323.1 K | 31.89 | –
328 K | 31.7 | –
328.04 K | – | 31.25
332.93 K | 31.43 | –
332.95 K | – | 30.99
338.37 K | – | 30.75
338.49 K | 31.11 | –
343.34 K | – | 30.5
343.59 K | 30.88 | –
347.87 K | – | 30.23
347.9 K | 30.57 | –
352.81 K | – | 29.98
352.87 K | 30.32 | –
357.85 K | – | 29.76
358.12 K | 30.14 | –
365.11 K | 29.71 | –
365.22 K | – | 29.4

Conditions | mass density [kg/m3]
293.11 K | 1216.29
298.18 K | 1212.6
303.15 K | 1209.57
308.14 K | 1205.42
313.21 K | 1201.39
318.08 K | 1197.66
323.13 K | 1193.94
328.02 K | 1190.39
332.95 K | 1186.82
338.45 K | 1183.02
343.45 K | 1179.31
348.02 K | 1176.28
352.94 K | 1172.76
358.11 K | 1168.91
365.13 K | 1163.68

CCCn1cc[n+](C)c1.F[P-](F)(F)(F)(F)F [1-methyl-3-propylimidazolium hexafluorophosphate]
surface tension liquid-gas [mN/m]
Conditions | Ring tensiometer | Wilhelmy plate
293.21 K | – | 48.34
293.23 K | 47.98 | –
298.2 K | – | 47.99
298.23 K | 47.77 | –
303.01 K | – | 47.68
303.04 K | 48.03 | –
308.2 K | – | 47.36
308.21 K | 47.15 | –
313.17 K | – | 47.06
313.22 K | 47.18 | –
318.07 K | – | 46.74
318.17 K | 46.99 | –
323.11 K | – | 46.4
323.22 K | 46.76 | –
328.22 K | 46.09 | –
328.25 K | – | 46.06
333.39 K | 45.83 | –
333.45 K | – | 45.73
338.46 K | 45.38 | 45.41
343.28 K | 44.84 | –
343.3 K | – | 45.14
348.2 K | 44.8 | –
348.25 K | – | 44.78
352.68 K | – | 44.5
352.76 K | 44.38 | –
358.22 K | 43.88 | –
358.24 K | – | 44.23
364.96 K | – | 43.78
365.07 K | 43.64 | –

CCCCCCCn1cc[n+](C)c1.F[P-](F)(F)(F)(F)F [1-heptyl-3-methylimidazolium hexafluorophosphate]
Conditions | mass density [kg/m3]
292.97 K | 1266.43
298.16 K | 1262.6
303.16 K | 1258.82
308.22 K | 1254.84
313.19 K | 1250.97
318.05 K | 1247.4
323.09 K | 1243.43
328.16 K | 1239.71
333.36 K | 1235.76
337.82 K | 1232.14
343.31 K | 1228.66
348.05 K | 1224.36
352.96 K | 1220.98
357.92 K | 1217.32
364.45 K | 1212.58

surface tension liquid-gas [mN/m]
Conditions | Ring tensiometer | Wilhemly plate
293.23 K | 36.05 | –
293.26 K | – | 36.06
298.15 K | 35.87 | 35.89
303.13 K | 35.6 | –
303.15 K | – | 35.6
308.2 K | 35.31 | –
308.21 K | – | 35.41
313.22 K | – | 35.13
313.26 K | 35.14 | –
318.05 K | – | 34.87
318.08 K | 34.74 | –
323.21 K | 34.65 | –
323.22 K | – | 34.65
328.1 K | – | 34.39
328.18 K | 34.3 | –
333.37 K | 34.07 | 34.13
337.89 K | – | 33.91
338.05 K | 33.75 | –
343.31 K | 33.7 | –
343.34 K | – | 33.68
348.16 K | – | 33.32
348.26 K | 33.24 | –
353.04 K | – | 33.18
357.99 K | 33.04 | –
358.04 K | – | 32.96
364.54 K | 32.62 | –
364.61 K | – | 32.67

Source: the NIST ThermoML archive (doi:10.1016/j.fluid.2014.10.029)
